From patent US5298508A, “Irreversible inhibitors of adenosine receptors” (priority 1992, dated 1994)
Read-outs that look alike come from different tables or passages of the source.

Tests used:
central A1 receptors [1] = biological target: T1, central A1 receptors (Rattus norvegicus, UniProt P25099); assay type: binding
T1 construct: A1 -adenosine receptors in rat brain membranes; from tissue; host or cells: rat brain membranes
T1 sequence (P25099 1-326): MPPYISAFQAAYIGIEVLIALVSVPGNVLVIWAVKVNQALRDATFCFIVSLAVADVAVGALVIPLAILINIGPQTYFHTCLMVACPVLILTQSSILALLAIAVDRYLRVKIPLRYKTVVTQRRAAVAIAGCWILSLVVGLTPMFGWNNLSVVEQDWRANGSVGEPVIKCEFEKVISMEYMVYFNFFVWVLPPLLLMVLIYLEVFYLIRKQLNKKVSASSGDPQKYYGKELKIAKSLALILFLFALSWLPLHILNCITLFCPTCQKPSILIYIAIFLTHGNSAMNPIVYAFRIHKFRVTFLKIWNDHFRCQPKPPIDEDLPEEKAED

A1 adenosine receptors = biological target: T2, A1 adenosine receptors (Rattus norvegicus, UniProt P25099); experiment: inhibition of binding of [3H]N6-phenylisopropyladenosine ([3H]PIA) to A1 adenosine receptors in rat cerebral cortex membranes
T2 construct: A1 adenosine receptors in rat cerebral cortex membranes; from tissue; host or cells: rat cerebral cortex membranes
T2 sequence (P25099 1-326): T1 sequence (P25099 1-326)
Method: Ukena et al., FEBS Letters 209;122, 1986.
For the biochemical assays, stock solutions of xanthines in the millimolar concentration range in dimethylsulfoxide were prepared and stored frozen. The solutions were warmed to 50° C. prior to dilution in aqueous medium. […] Acad. Sci. USA, 83:4089, 1986. Inhibition of binding by a range of concentrations of a xanthine or adenosine derivative was assessed in triplicate in at least three separate experiments.

central A1 receptors [2] = biological target: T3, central A1 receptors (Bos taurus, UniProt P28190); experiment: inhibition of radioligand binding at central A1 receptors, calf brain membranes
T3 construct: A1 -adenosine receptors in membranes form calf brain; from tissue; host or cells: calf brain membranes
T3 sequence (P28190 1-326): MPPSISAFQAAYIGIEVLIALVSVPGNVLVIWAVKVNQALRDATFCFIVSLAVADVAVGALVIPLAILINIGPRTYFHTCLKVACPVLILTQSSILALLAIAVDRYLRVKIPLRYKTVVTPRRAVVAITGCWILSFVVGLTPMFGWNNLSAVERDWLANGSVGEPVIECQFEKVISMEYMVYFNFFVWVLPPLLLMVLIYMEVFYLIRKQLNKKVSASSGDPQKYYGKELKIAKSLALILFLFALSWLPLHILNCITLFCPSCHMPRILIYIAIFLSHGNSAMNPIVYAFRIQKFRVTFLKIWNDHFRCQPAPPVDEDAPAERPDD
Excerpt: ^b against [^125 I]APNEA (i.e. N^6
^b against [^125 I]APNEA;
The compounds, at concentrations relative to the Ki -values obtained, were screened for the ability to inhibit competitive binding of the radioligands [^3 H]PIA to rat brain membranes and [^3 H]XAC to bovine brain membranes, a shown in Table 1.

[3] = Table I, rat, against [3H]PIA, read-out: Ki at central A1 receptors, rat
[4] = Table I, calf, against [125I]APNEA, read-out: Ki at central A1 receptors, calf
[5] = read-out: Ki at central A1 receptors, rat
[6] = read-out: Ki at central A1 receptors, calf

Ki (A1 adenosine receptors; [3]) [nM]	Ki (A1 adenosine receptors; [5]) [nM]	SMILES	other results
53 ± 12	–	CCCn1c(=O)c2[nH]c(-c3ccc(OCC(=O)NCCNC(=O)Cc4ccc(NC(=O)OC(C)(C)C)cc4)cc3)nc2n(CCC)c1=O [Compound 15c]	–
40	–	CCCn1c(=O)c2[nH]c(-c3ccc(OCC(=O)NCCNC(=O)Cc4ccc(N)cc4)cc3)nc2n(CCC)c1=O [Compound 15d]	–
20 ± 4.5	–	CCCn1c(=O)c2[nH]c(-c3ccc(OCC(=O)NCCNC(=O)CCC(=O)ON4C(=O)CCC4=O)cc3)nc2n(CCC)c1=O [Compound 20b]	inhibition at 0.5 µM (central A1 receptors [1]; read-out: % inhib (conc)): 0%; irreversible inhibition of central A1-adenosine receptors (central A1 receptors [1]; result in words): only the longest of the series, SUS-XAC, 21, inhibits binding irreversibly
–	5	O=C(Cc1ccc(NC(=O)Cc2ccc(Nc3ncnc4c3ncn4[C@@H]3O[C@H](CO)[C@@H](O)[C@H]3O)cc2)cc1)NCCNC(=S)Nc1ccc(F)cc1 [Compound 31a]	–
–	10.7	O=C(Cc1ccc(NC(=O)Cc2ccc(Nc3ncnc4c3ncn4[C@@H]3O[C@H](CO)[C@@H](O)[C@H]3O)cc2)cc1)NCCNC(=S)Nc1ccccc1F [Compound 31b]	–

More lines, now with the values behind:

SMILES	Ki (A1 adenosine receptors; [3]) [nM]	Ki (A1 adenosine receptors; [5]) [nM]	other results
CCCn1c(=O)c2[nH]c(-c3ccc(OCC(=O)ON4C(=O)CCC4=O)cc3)nc2n(CCC)c1=O [Compound 1]	9 ± 0.7	–	inhibition at 0.5 µM (central A1 receptors [1]; read-out: % inhib (conc)): 0%; irreversible inhibition of central A1-adenosine receptors (central A1 receptors [1]; result in words): only the longest of the series, SUS-XAC, 21, inhibits binding irreversibly
CCCn1c(=O)c2[nH]c(-c3ccc(OCC(=O)NCC=O)cc3)nc2n(CCC)c1=O [Compound 2b]	266 ± 40	–	% inhib (conc) (central A1 receptors [1]; 500 nM, one hour incubation and washout, rat brain membranes, against [125I]APNEA): 0%; Ki (central A1 receptors [2]; [4]): 1.5 ± 0.1 nM
CCCn1c(=O)c2[nH]c(-c3ccc(OCC(=O)NCCN)cc3)nc2n(CCC)c1=O [Compound 3, reference compound]	1.1 ± 0.05	–	Ki (central A1 receptors [2]; [4]): 0.2 nM
CCCn1c(=O)c2[nH]c(-c3ccc(OCC(=O)NCCNC(=S)Nc4cccc(N=C=S)c4)cc3)nc2n(CCC)c1=O [Compound 5b]	–	–	inhibition at 0.005 µM (central A1 receptors [1]; read-out: % inhib (conc)): 49%; potency of irreversible inhibition, meta versus para phenylisothiocyanate (central A1 receptors [1]; xanthine series, result in words): meta-position favored (5b) over the para-position (4b); Ki (central A1 receptors [2]): 0.5 nM; relative potency in the binding assay, 5b versus 4b (A1 adenosine receptors; meta versus para isomer): more than twice as potent in the binding assay than 4b
CCCn1c(=O)c2[nH]c(-c3ccc(OCC(=O)NCCNC(=S)Nc4ccc(C)cc4)cc3)nc2n(CCC)c1=O [Compound 6]	16 ± 2.9	–	–
CCCn1c(=O)c2nc(-c3ccc(OCC(=O)NCCN=C(S)Nc4ccc(OC)cc4)cc3)[nH]c2n(CCC)c1=O [Compound 7]	20	–	–
CCCn1c(=O)c2nc(-c3ccc(OCC(=O)NCCN=C(S)Nc4ccc(F)cc4)cc3)[nH]c2n(CCC)c1=O [Compound 8]	–	12.8	–
CCCn1c(=O)c2[nH]c(-c3ccc(OCC(=O)NCCNC(=S)Nc4c(F)c(F)c(F)c(F)c4F)cc3)nc2n(CCC)c1=O [Compound 9]	9.07 ± 0.9	–	–
CCCn1c(=O)c2[nH]c(-c3ccc(OCC(=O)NCCNC(=S)Nc4ccc(Br)cc4)cc3)nc2n(CCC)c1=O [Compound 10]	7.26 ± 0.9	–	–
CCCn1c(=O)c2nc(-c3ccc(OCC(=O)NCCN=C(S)Nc4ccc([N+](=O)[O-])cc4)cc3)[nH]c2n(CCC)c1=O [Compound 11]	–	5	–
CCCn1c(=O)c2nc(-c3ccc(OCC(=O)NCCN=C(S)Nc4ccc(S(=O)(=O)O)cc4)cc3)[nH]c2n(CCC)c1=O [Compound 12]	–	430	–
CCCn1c(=O)c2[nH]c(-c3ccc(OCC(=O)NCCNS(=O)(=O)c4cccc(S(=O)(=O)Cl)c4)cc3)nc2n(CCC)c1=O [Compound 13]	2.5 ± 0.47	–	inhibition at 0.1 µM (central A1 receptors [1]; read-out: % inhib (conc)): 20%
CCCn1c(=O)c2[nH]c(-c3ccc(OCC(=O)NCCNS(=O)(=O)c4ccc(C)cc4)cc3)nc2n(CCC)c1=O [Compound 14]	72 ± 7.2	–	–
CCCn1c(=O)c2[nH]c(-c3ccc(OCC(=O)NCCNC(=O)Cc4ccc(NC(=S)Nc5ccc(N=C=S)cc5)cc4)cc3)nc2n(CCC)c1=O [Compound 15e]	–	–	inhibition at 0.1 µM (central A1 receptors [1]; read-out: % inhib (conc)): 10%; Ki (A1 adenosine receptors): 30 nM
CCCn1c(=O)c2[nH]c(-c3ccc(OCC(=O)NCCNC(=O)CNC(=S)Nc4ccc(N=C=S)cc4)cc3)nc2n(CCC)c1=O [Compound 16c]	6.85 ± 1.14	–	inhibition at 0.5 µM (central A1 receptors [1]; read-out: % inhib (conc)): 50%; irreversible inhibition of central A1-adenosine receptors (central A1 receptors [1]; result in words): behave pharmacologically as irreversible inhibitors of central A1 -adenosine receptors
CCCn1c(=O)c2[nH]c(-c3ccc(OCC(=O)NCCNC(=O)CCCCC(C)=O)cc3)nc2n(CCC)c1=O [Compound 17]	44 ± 9	–	inhibition at 0.5 µM (central A1 receptors [1]; read-out: % inhib (conc)): 0%; Ki (central A1 receptors [2]; [6]): 3.2 nM
CCCn1c(=O)c2[nH]c(-c3ccc(OCC(=O)NCCNC(=O)CBr)cc3)nc2n(CCC)c1=O [Compound 18, 8-[2-[4-bromoacetylaminoethyl[amino[carbonyl[methyloxyphenyl]]]]]-1,3-dipropylxanthine]	17.6 ± 1.5	–	–

SMILES	Ki (A1 adenosine receptors; [3]) [nM]	Ki (A1 adenosine receptors; [5]) [nM]	other results
CCCn1c(=O)c2[nH]c(-c3ccc(OCC(=O)NCCNC(=O)c4ccc(CBr)cc4)cc3)nc2n(CCC)c1=O [Compound 19]	11.5 ± 1.5	–	Ki (central A1 receptors [2]; [6]): 6.9 nM
CCCn1c(=O)c2[nH]c(-c3ccc(OCC(=O)NCCNC(=O)CCCCCCC(=O)ON4C(=O)CCC4=O)cc3)nc2n(CCC)c1=O [Compound 21]	3.69 ± 0.71	–	inhibition at 0.5 µM (central A1 receptors [1]; read-out: % inhib (conc)): 40%; irreversible inhibition of central A1-adenosine receptors (central A1 receptors [1]; result in words): inhibits binding irreversibly; Ki (central A1 receptors [2]; [4]): 15.8 nM
CCCn1c(=O)c2[nH]c(-c3ccc(OCC(=O)NCCNC(=O)CCSSc4ccccn4)cc3)nc2n(CCC)c1=O [Compound 22]	23.8 ± 3.51	–	–
CCCn1c(=O)c2nc(-c3ccc(OCC(=O)NCCNC(=O)CCCN4C(=O)C=CC4=O)cc3)[nH]c2n(CCC)c1=O [Compound 23]	–	63	–
O=C(Cc1ccc(Nc2ncnc3c2ncn3[C@@H]2O[C@H](CO)[C@@H](O)[C@H]2O)cc1)ON1C(=O)CCC1=O [Compound 24]	–	–	Ki (A1 adenosine receptors; Table II, rat, against [3H]PIA, read-out: Ki at central A1 receptors, rat): 8.37 ± 0.73 nM
O=C(Cc1ccc(Nc2ncnc3c2ncn3[C@@H]2O[C@H](CO)[C@@H](O)[C@H]2O)cc1)Nc1ccc(CC(=O)ON2C(=O)CCC2=O)cc1 [Compound 25]	–	9.6 ± 1.44	–
NCCNC(=O)Cc1ccc(NC(=O)Cc2ccc(Nc3ncnc4c3ncn4[C@@H]3O[C@H](CO)[C@@H](O)[C@H]3O)cc2)cc1 [Compound 26a, reference compound]	–	–	Ki (central A1 receptors [2]): 0.2 nM
O=C(Cc1ccc(NC(=O)Cc2ccc(Nc3ncnc4c3ncn4[C@@H]3O[C@H](CO)[C@@H](O)[C@H]3O)cc2)cc1)NCCN=C=S [Compound 26b]	–	–	Ki (central A1 receptors [2]): 2.5 nM; Ki (A1 adenosine receptors): 4 nM
O=C(Cc1ccc(NC(=O)Cc2ccc(Nc3ncnc4c3ncn4[C@@H]3O[C@H](CO)[C@@H](O)[C@H]3O)cc2)cc1)NCCNC(=S)Nc1ccc(N=C=S)cc1 [Compound 27]	–	–	inhibition at 0.05 µM (central A1 receptors [1]; read-out: % inhib (conc)): > 80%; irreversible inhibition of central A1-adenosine receptors (central A1 receptors [1]; result in words): behave pharmacologically as irreversible inhibitors of central A1 -adenosine receptors; Ki (central A1 receptors [2]): 0.1 nM; Ki (A1 adenosine receptors): 0.47 ± 0.13 nM
Cc1ccc(NC(=S)NCCNC(=O)Cc2ccc(NC(=O)Cc3ccc(Nc4ncnc5c4ncn5[C@@H]4O[C@H](CO)[C@@H](O)[C@H]4O)cc3)cc2)cc1 [Compound 29]	–	3.72 ± 0.44	–
COc1ccc(NC(=S)NCCNC(=O)Cc2ccc(NC(=O)Cc3ccc(Nc4ncnc5c4ncn5[C@@H]4O[C@H](CO)[C@@H](O)[C@H]4O)cc3)cc2)cc1 [Compound 30]	–	5	–
O=C(Cc1ccc(NC(=O)Cc2ccc(Nc3ncnc4c3ncn4[C@@H]3O[C@H](CO)[C@@H](O)[C@H]3O)cc2)cc1)NCCNC(=S)Nc1c(F)c(F)c(F)c(F)c1F [Compound 32]	–	1.64 ± 0.47	–
O=C(Cc1ccc(NC(=O)Cc2ccc(Nc3ncnc4c3ncn4[C@@H]3O[C@H](CO)[C@@H](O)[C@H]3O)cc2)cc1)NCCNC(=S)Nc1ccc(Br)cc1 [Compound 33]	–	1.19 ± 0.14	–
O=C(Cc1ccc(NC(=O)Cc2ccc(Nc3ncnc4c3ncn4[C@@H]3O[C@H](CO)[C@@H](O)[C@H]3O)cc2)cc1)NCCNC(=S)Nc1ccc([N+](=O)[O-])cc1 [Compound 34]	–	1	–
O=C(Cc1ccc(NC(=O)Cc2ccc(Nc3ncnc4c3ncn4[C@@H]3O[C@H](CO)[C@@H](O)[C@H]3O)cc2)cc1)NCCNC(=S)Nc1ccc(S(=O)(=O)O)cc1 [Compound 35]	–	100	–
O=C(CBr)NCCNC(=O)Cc1ccc(NC(=O)Cc2ccc(Nc3ncnc4c3ncn4[C@@H]3O[C@H](CO)[C@@H](O)[C@H]3O)cc2)cc1 [Compound 36]	–	5	–
